Reference: US5128366A, “Pyrrole derivatives” (Shinogi & Co., Ltd., priority 1990, dated 1992)

Molecular target: T1, HMG-CoA reductase (Rattus norvegicus, UniProt P51639)
T1 construct: from tissue; host or cells: liver microsomes of Sprague-Dawley rats fed 2% cholestyramine for 2 weeks
T1 sequence (P51639 1-887): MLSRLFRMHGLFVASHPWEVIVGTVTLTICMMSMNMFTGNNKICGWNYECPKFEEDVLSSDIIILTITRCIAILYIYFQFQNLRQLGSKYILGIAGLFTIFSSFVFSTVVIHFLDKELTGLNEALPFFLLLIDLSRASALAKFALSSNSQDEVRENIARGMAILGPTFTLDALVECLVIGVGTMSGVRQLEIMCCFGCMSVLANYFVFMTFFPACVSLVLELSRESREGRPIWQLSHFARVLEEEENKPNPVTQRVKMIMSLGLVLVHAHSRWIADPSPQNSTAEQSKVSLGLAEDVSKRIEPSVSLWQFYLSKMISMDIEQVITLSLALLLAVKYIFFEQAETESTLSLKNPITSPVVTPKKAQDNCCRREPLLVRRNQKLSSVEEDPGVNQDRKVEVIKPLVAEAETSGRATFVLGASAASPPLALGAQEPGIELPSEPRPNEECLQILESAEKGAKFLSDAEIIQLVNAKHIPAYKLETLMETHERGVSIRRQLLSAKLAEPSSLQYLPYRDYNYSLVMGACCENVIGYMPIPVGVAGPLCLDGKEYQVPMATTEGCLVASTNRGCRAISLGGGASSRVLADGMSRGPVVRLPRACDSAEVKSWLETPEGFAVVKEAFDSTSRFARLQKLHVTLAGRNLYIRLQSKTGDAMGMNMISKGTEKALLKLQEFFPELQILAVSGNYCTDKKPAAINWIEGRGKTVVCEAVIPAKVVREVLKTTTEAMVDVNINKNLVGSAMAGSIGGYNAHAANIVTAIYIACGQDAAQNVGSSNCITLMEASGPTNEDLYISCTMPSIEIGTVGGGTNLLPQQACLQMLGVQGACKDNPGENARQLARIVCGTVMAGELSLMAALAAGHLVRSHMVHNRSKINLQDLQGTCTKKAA
Assay: HMG-CoA reductase inhibitory effect in rat liver microsome, [3-14C]HMG-CoA, TLC and scintillation counting
Type: biochemical
Conditions: comparative activity, Mevinolin (sodium salt) as reference drug = 100, sodium salt of the test compound, 37° C., 30 minutes
Procedure: (1) Preparation of Rat Liver Microsome
Sprague-Dawley rats, which were in free access to ordinary diets containing 2% cholestyramine and water for 2 weeks, were used for the preparation of rat liver microsome, which were then purified according to the manner by Kuroda et al., Biochem. Biophys. Act, 486, 70 (1977). The microsomal fraction obtained by centrifugation at 105000×g was washed once with a buffered solution containing 15 mM nicotinamide and 2 mM magnesium chloride (in a 100 mM potassium phosphate buffer, pH 7.4). It was homogenized with a buffer containing nicotinamide and magnesium chloride at the same weight as the liver employed. The thus obtained homogenate was cooled down to and kept at -80° C.
(2) Measurement of the HMG-CoA Reductase Inhibitory Activities
The rat liver microsome (100 μl), which was preserved at -80° C., was […] at 0° C. and diluted with 0.7 ml of a cold potassium phosphate buffer (100 mM, pH 7.4 ). This was mixed with 0.8 ml of 50 mM EDTA (buffered with the aforementioned potassium phosphate buffer) and 0.4 ml of 100 mM dithiothreitol solution (buffered with the aforementioned potassium phosphate buffer), and the mixture was kept at 0° C. The microsome solution, 1.675 ml, was mixed with 670 μl of 25 mM NADPH (buffered with the aforementioned potassium phosphate buffer), and the solution was added to the solution of 0.5 mM [3^-14 C]HMG-CoA (3 mCi/mmol). Potassium phosphate buffer of sodium salt of the test compound 5 μl is added to the mixture of microsome and HMG-CoA 45 μl, and the resulting mixture was incubated at 37° C. for 30 minutes and cooled. After termination of the reaction by addition of 10 μl of 2N-HCl, the mixture was incubated again at 37° C. for 15 minutes and then 30 μl of this mixture was applied to thin-layer chromatography with silica gel of 0.5 mm in thickness (Merck AG, Art 5744). The chromatograms were developed in toluene/acetone (1/1) and the sections, whose Rf value was between 0.45 to 0.6, were scraped. The obtained products were put into a vial containing 8 ml of scintillator to measure specific radio-activity with a scintillation counter.

| SMILES | HMG-CoA reductase inhibitory activities |
| --- | --- |
| Cc1c(-c2ccc(F)cc2)c(/C=C/[C@@H](O)C[C@@H](O)CC(=O)O)c(C(C)C)n1S(=O)(=O)Cc1ccccc1 (relative stereo) [Ia-19, 7-[4-(4-Fluorophenyl)-2-isopropyl-5-methyl-(1-benzylsulfonyl)-pyrrol-3-yl]-(3R*,5S*)-dihydroxy-(E)-6-heptenate] | 105 |
| CCS(=O)(=O)n1c(C)c(-c2ccc(F)cc2)c(/C=C/[C@@H](O)C[C@@H](O)CC(=O)O)c1C(C)C (relative stereo) [Ia-18, 7-[4-(4-Fluorophenyl)-2-isopropyl-5-methyl-(1-ethylsulfonyl)pyrrol-3-yl]-(3R*,5S*)-dihydroxy-(E)-6-heptenate] | 228 |
| CC[C@H](C)C(=O)O[C@H]1C[C@@H](C)C=C2C=C[C@H](C)[C@H](CC[C@@H](O)C[C@@H](O)CC(=O)O)[C@H]21 [Mevinolin Na, Mevinolin, reference compound] | 100 |

Continued, values first:

| HMG-CoA reductase inhibitory activities | SMILES |
| --- | --- |
| 293 | CC(C)c1c(/C=C/[C@@H](O)C[C@@H](O)CC(=O)O)c(-c2ccc(F)cc2)c(-c2ccc(F)cc2)n1S(C)(=O)=O (relative stereo) [Ia-17, 7-.upsilon.4,5-Di-(4-fluorophenyl)-2-isopropyl-1-(methylsulfonyl)-pyrrol-3-yl]-(3R*,5S*)-dihydroxy-(E)-6-heptenoic acid] |
| 418 | Cc1c(-c2ccc(F)cc2)c(/C=C/[C@@H](O)C[C@@H](O)CC(=O)O)c(C(C)C)n1S(C)(=O)=O [Id-2, (+) Sodium 7-[4-(4-fluorophenyl)-2-isopropyl-5-methyl-(1-methylsulfonyl)pyrrol-3-yl]-(3R,5S)-dihydroxy-(E)-6-heptenate] |
| 263 | CC(C)c1c(/C=C/[C@@H](O)C[C@@H](O)CC(=O)O)c(-c2ccc(F)cc2)cn1S(C)(=O)=O (relative stereo) [Ia-10] |
